Measured values: patent publication EP4380572B1, “FORMULATION FOR SUBSTITUTED 2-AMINOTHIAZOLES IN THE TREATMENT OF FUNGAL AND FUNGAL-BACTERIAL INFECTIONS OF THE NAIL” (OnychoPharm GmbH, priority 2021, dated 2023)

What was measured:
[1] = cited from earlier work; for stability of the crystalline form: anhydrate polymorphic crystalline forms described in EP 0 718 296 A1
[2] = Solubility of abafungin in different solvents (saturated solution, UV at 302 nm); type: physicochemical; conditions: shaken 24 h, 19°C
Protocol: 2 ml of solvent were placed in a glass vial containing abafungin powder. The vial was mechanically shaken for 24 h in an environment with controlled temperature (19°C). Thereafter the content of the vials was transferred into Eppendorf tubes and centrifuged at 13000 rpm for 3 min. The supernatant (saturated solution) was collected and assayed using a UV spectrometer at 302 nm (λmax of abafungin). […] Drug concentration in the saturated solution (or diluted solution) was then determined using a standard curve (Table 2). Each experiment was conducted in triplicates. […]

Row | Structure (SMILES) | stability of the crystalline form [1] | stability at high humidity ([1]; 85% relative humidity, over months) | Solubility mg/100 ml mean ± standard deviation ([2]; solvent 1,2-propanediol) [mg/100 ml] | Solubility mg/100 ml mean ± standard deviation ([2]; solvent DMSO) [mg/100 ml] | Solubility mg/100 ml mean ± standard deviation ([2]; solvent N-methyl pyrrolidone) [mg/100 ml] | Solubility mg/100 ml mean ± standard deviation ([2]; solvent PEG600) [mg/100 ml] | Solubility mg/100 ml mean ± standard deviation ([2]; solvent butyl acetate) [mg/100 ml] | Solubility mg/100 ml mean ± standard deviation ([2]; solvent ethanol) [mg/100 ml] | Solubility mg/100 ml mean ± standard deviation ([2]; solvent ethyl acetate) [mg/100 ml] | Solubility mg/100 ml mean ± standard deviation ([2]; solvent isopropanol myristate) [mg/100 ml] | Solubility mg/100 ml mean ± standard deviation ([2]; solvent isopropanol) [mg/100 ml] | Solubility mg/100 ml mean ± standard deviation ([2]; solvent water) [mg/100 ml]
1 | Cc1ccc(Oc2ccccc2-c2csc(N=C3NCCCN3)n2)c(C)c1 [modification 1] | metastable | – | – | – | – | – | – | – | – | – | – | –
2 | Cc1ccc(Oc2ccccc2-c2csc(N=C3NCCCN3)n2)c(C)c1 [modification 2] | photochemically and thermodynamically more stable | stable | – | – | – | – | – | – | – | – | – | –
3 | Cc1ccc(Oc2ccccc2-c2csc(N=C3NCCCN3)n2)c(C)c1 [abafungin, 4-[2-(2,4-dimethylphenoxy)phenyl]-N-(1,4,5,6-tetrahydropyrimidin-2-yl)-1,3-thiazol-2-amine] | – | – | 219.93 ± 12.10 | 4483.42 ± 16.30 | 27678.92 ± 434.07 | 5029.70 ± 12.70 | 822.13 ± 2.55 | 238.46 ± 2.72 | 803.75 ± 35.51 | 50.60 ± 4.30 | 156.14 ± 16.5 | < 0.032
